# US8993542B2, “Methods of treating viral infections” (priority 2008, dated 2015)
# Where two headings read alike, the source gives them in different places.
# How the values were obtained:
# [1] = system: HIV; experiment: microbe, parasite or virus in culture; format: cell-based; details: for IC50: read-out: IC50
# [2] = Toxicokinetics and 7-day toxicity after oral administration of CMX157 to rats; format: in vivo; details: rat plasma
# [3] = system: HIV-1IIIB; experiment: Association of compound with concentrated virus (LC/MS/MS of viral pellets); format: binding; details: 500 nM, 2 hours
# Experimental: To examine the potential of CMX157 to associate directly with virus, concentrated HIV-1IIIB (approximately 9.7×10^10 virus particles) is treated with 500 nM CMX157 or TFV for 2 hours. Following incubation, virus is pelleted to remove unbound compound, lysed with 70% ice cold methanol and centrifuged. Supernatants are analyzed in triplicate using LC/MS/MS (liquid chromatography/mass spectrometry). TFV, TFV mono- and diphosphate are separated by gradient, reverse phase, ion-paring chromatography and detected by positive ion electrospray. The levels of CMX157 associated with the viral pellets (≈37,000 molecules/virion) are much higher than the levels of TFV associated with viral pellets (≈100 molecules/virion).
# [4] = system: HIV-1IIIB; experiment: TCID50 determination of drug-treated HIV-1IIIB; format: cell-based; parameters: TCID50, XTT Endpoint / TCID50, RT Endpoint / TCID50, P24 Endpoint: unit not given here
# [5] = system: HIV-1IIIB; experiment: Two-drug combination antiviral assay in CEM cells (CPE), MacSynergy II; format: cell-based; details: in combination with CMX157, CEM-SS cells, 95% confidence
# [6] = PANEL 40, M41L + L210W + T215Y + M184V
# [7] = PANEL 41, M41L + L210W + T215Y + M184V
# [8] = PANEL 44, D67N + K70R + T215F + K219E + M184V
# [9] = virus treated 2 hours with 125 nM drug
# [10] = virus treated 2 hours with 250 nM drug
# [11] = virus treated 2 hours with 500 nM drug
# [12] = virus treated 2 hours with 1000 nM drug
smiles,measurement,setting,value
"C[C@H](Cn1cnc2c(N)ncnc21)OCP(=O)(O)O [TFV, (R)-9-(2-phosphonylmethoxypropyl)adenine]",IC50 Fold Change,"[1]; PANEL 1, WT",0.79
same,IC50,"[1]; PANEL 1, WT",613 nM
same,IC50 Fold Change,"[1]; PANEL 2, WT",0.85
same,IC50,"[1]; PANEL 2, WT",652 nM
same,IC50 Fold Change,"[1]; PANEL 3, 6 TAMs, no 184",3.47
same,IC50,"[1]; PANEL 3, 6 TAMs, no 184",2670 nM
same,IC50 Fold Change,"[1]; PANEL 6, 6 TAMs + 184",2.16
same,IC50,"[1]; PANEL 6, 6 TAMs + 184",1670 nM
same,IC50 Fold Change,"[1]; PANEL 7, 184V",0.69
same,IC50,"[1]; PANEL 7, 184V",534 nM
same,IC50 Fold Change,"[1]; PANEL 9, 69ins, no 184",22.00
same,IC50,"[1]; PANEL 9, 69ins, no 184",17000 nM
same,IC50 Fold Change,"[1]; PANEL 12, 69ins + 184",4.72
same,IC50,"[1]; PANEL 12, 69ins + 184",3640 nM
same,IC50 Fold Change,"[1]; PANEL 14, 65R, no 184",1.71
same,IC50,"[1]; PANEL 14, 65R, no 184",1320 nM
same,IC50 Fold Change,"[1]; PANEL 15, 65R + 184V",1.22
same,IC50,"[1]; PANEL 15, 65R + 184V",940 nM
same,IC50 Fold Change,"[1]; PANEL 17, L74V",0.62
same,IC50,"[1]; PANEL 17, L74V",476 nM
same,IC50 Fold Change,"[1]; PANEL 19, L74V + M184V",0.29
same,IC50,"[1]; PANEL 19, L74V + M184V",227 nM
same,IC50 Fold Change,"[1]; PANEL 26, 151M, no 184",2.26
same,IC50,"[1]; PANEL 26, 151M, no 184",1740 nM
same,IC50 Fold Change,"[1]; PANEL 28, 151M + 184",1.43
same,IC50,"[1]; PANEL 28, 151M + 184",1100 nM
same,IC50 Fold Change,"[1]; PANEL 29, L74V − SDM",0.69
same,IC50,"[1]; PANEL 29, L74V − SDM",535 nM
same,IC50 Fold Change,"[1]; PANEL 30, M184V − SDM",0.54
same,IC50,"[1]; PANEL 30, M184V − SDM",413 nM
same,IC50 Fold Change,"[1]; PANEL 31, K65R − SDM",2.01
same,IC50,"[1]; PANEL 31, K65R − SDM",1550 nM
same,IC50 Fold Change,"[1]; PANEL 33, T215Y",2.39
same,IC50,"[1]; PANEL 33, T215Y",1840 nM
same,IC50 Fold Change,"[1]; PANEL 34, T215Y + M184V",0.81
same,IC50,"[1]; PANEL 34, T215Y + M184V",624 nM
same,IC50 Fold Change,"[1]; PANEL 35, M41L + T215Y",1.84
same,IC50,"[1]; PANEL 35, M41L + T215Y",1420 nM
same,IC50 Fold Change,"[1]; PANEL 37, M41L + T215Y + M184V",1.34
same,IC50,"[1]; PANEL 37, M41L + T215Y + M184V",1030 nM
same,IC50 Fold Change,"[1]; PANEL 38, M41L + L210W + T215Y",2.80
same,IC50,"[1]; PANEL 38, M41L + L210W + T215Y",2160 nM
same,IC50 Fold Change,"[1]; PANEL 39, M41L + L210W + T215Y",3.01
same,IC50,"[1]; PANEL 39, M41L + L210W + T215Y",2320 nM
same,IC50 Fold Change,[1]; [6],0.97
same,IC50,[1]; [6],751 nM
same,IC50 Fold Change,[1]; [7],1.02
same,IC50,[1]; [7],789 nM
same,IC50 Fold Change,"[1]; PANEL 42, D67N + K70R",2.56
same,IC50,"[1]; PANEL 42, D67N + K70R",1970 nM
same,IC50 Fold Change,[1]; [8],0.91
same,IC50,[1]; [8],703 nM
same,IC50 Fold Change,"[1]; PANEL 45, L210W + T215Y",1.34
same,IC50,"[1]; PANEL 45, L210W + T215Y",1030 nM
same,IC50 Fold Change,"[1]; PANEL 46, D67N + K70E",0.96
same,IC50,"[1]; PANEL 46, D67N + K70E",738 nM
same,IC50 Fold Change,"[1]; PANEL 47, D67N + K70E + M184V",0.64
same,IC50,"[1]; PANEL 47, D67N + K70E + M184V",495 nM
same,IC50 Fold Change,"[1]; PANEL 48, K70E + M184V",0.61
same,IC50,"[1]; PANEL 48, K70E + M184V",472 nM
same,AUC0-24,"[2]; oral CMX157 10 mg/kg, day 1",510.8 ng·h/mL
same,AUC0-∞,"[2]; oral CMX157 10 mg/kg, day 1",775.2 ng·h/mL
same,Cmax,"[2]; oral CMX157 10 mg/kg, day 1",55.35 ng/mL
same,Tmax,"[2]; oral CMX157 10 mg/kg, day 1",2.0 h
same,t1/2elim,"[2]; oral CMX157 10 mg/kg, day 1",10.9 h
same,AUC0-24,"[2]; oral CMX157 10 mg/kg, day 7",964.7 ng·h/mL
same,AUC0-∞,"[2]; oral CMX157 10 mg/kg, day 7","1,226.9 ng · h/ml"
same,Cmax,"[2]; oral CMX157 10 mg/kg, day 7",49.55 ng/mL
same,Tmax,"[2]; oral CMX157 10 mg/kg, day 7",2.4 h
same,t1/2elim,"[2]; oral CMX157 10 mg/kg, day 7",9.2 h
same,AUC0-24,"[2]; oral CMX157 30 mg/kg, day 1","1,456.1 ng · h/ml"
same,AUC0-∞,"[2]; oral CMX157 30 mg/kg, day 1","1,808.1 ng · h/ml"
same,Cmax,"[2]; oral CMX157 30 mg/kg, day 1",109.10 ng/mL
same,Tmax,"[2]; oral CMX157 30 mg/kg, day 1",4.0 h
same,t1/2elim,"[2]; oral CMX157 30 mg/kg, day 1",10.1 h
same,AUC0-24,"[2]; oral CMX157 30 mg/kg, day 7","2,363.4 ng · h/ml"
same,AUC0-∞,"[2]; oral CMX157 30 mg/kg, day 7","2,790.5 ng · h/ml"
same,Cmax,"[2]; oral CMX157 30 mg/kg, day 7",149.25 ng/mL
same,Tmax,"[2]; oral CMX157 30 mg/kg, day 7",4.0 h
same,t1/2elim,"[2]; oral CMX157 30 mg/kg, day 7",7.6 h
same,AUC0-24,"[2]; oral CMX157 100 mg/kg, day 1","3,039.3 ng · h/ml"
same,AUC0-∞,"[2]; oral CMX157 100 mg/kg, day 1","3,639.5 ng · h/ml"
same,Cmax,"[2]; oral CMX157 100 mg/kg, day 1",181.40 ng/mL
same,Tmax,"[2]; oral CMX157 100 mg/kg, day 1",12.0 h
same,t1/2elim,"[2]; oral CMX157 100 mg/kg, day 1",7.2 h
same,AUC0-24,"[2]; oral CMX157 100 mg/kg, day 7","5,715.4 ng · h/ml"
same,AUC0-∞,"[2]; oral CMX157 100 mg/kg, day 7","7,373.4 ng · h/ml"
same,Cmax,"[2]; oral CMX157 100 mg/kg, day 7",322.00 ng/mL
same,Tmax,"[2]; oral CMX157 100 mg/kg, day 7",12.0 h
same,t1/2elim,"[2]; oral CMX157 100 mg/kg, day 7",9.0 h
same,levels associated with the viral pellets,[3],≈ 100 molecules/virion
same,effect on viral replication,"[4]; up to 1000 nM, 2 hours",no discernible effect
same,"Fold Decrease From VC, P24 Endpoint",[4]; [9],(0) Fold
same,"Fold Decrease From VC, RT Endpoint",[4]; [9],(1.1) Fold
same,"Fold Decrease From VC, XTT Endpoint",[4]; [9],(1.1) Fold
same,"TCID50, P24 Endpoint",[4]; [9],43056
same,"TCID50, RT Endpoint",[4]; [9],72449
same,"TCID50, XTT Endpoint",[4]; [9],4027
same,"Fold Decrease From VC, P24 Endpoint",[4]; [10],(0) Fold
same,"Fold Decrease From VC, RT Endpoint",[4]; [10],(1.1) Fold
same,"Fold Decrease From VC, XTT Endpoint",[4]; [10],(0) Fold
same,"TCID50, P24 Endpoint",[4]; [10],36227
same,"TCID50, RT Endpoint",[4]; [10],72449
same,"TCID50, XTT Endpoint",[4]; [10],4529
same,"Fold Decrease From VC, P24 Endpoint",[4]; [11],(0) Fold
same,"Fold Decrease From VC, RT Endpoint",[4]; [11],(0) Fold
same,"Fold Decrease From VC, XTT Endpoint",[4]; [11],(0) Fold
same,"TCID50, P24 Endpoint",[4]; [11],37328
same,"TCID50, RT Endpoint",[4]; [11],81289
same,"TCID50, XTT Endpoint",[4]; [11],4529
same,"Fold Decrease From VC, P24 Endpoint",[4]; [12],(0) Fold
same,"Fold Decrease From VC, RT Endpoint",[4]; [12],(1.3) Fold
same,"Fold Decrease From VC, XTT Endpoint",[4]; [12],(0) Fold
same,"TCID50, P24 Endpoint",[4]; [12],36227
same,"TCID50, RT Endpoint",[4]; [12],64570
same,"TCID50, XTT Endpoint",[4]; [12],4529
same,"Antagonism Volume, Result 1",[5],"−0.53 nM^2 %, μM^2 % or nMμM %"
same,"Antagonism Volume, Result 2",[5],"0 nM^2 %, μM^2 % or nMμM %"
same,"Antagonism Volume, Result 3",[5],"0 nM^2 %, μM^2 % or nMμM %"
same,Mean Antagonism Volume (n = 3),[5],"−0.18 nM^2 %, μM^2 % or nMμM %"
same,Mean Synergy Volume (n = 3),[5],"28.4 nM^2 %, μM^2 % or nMμM %"
same,"Synergy Volume, Result 1",[5],"17.6 nM^2 %, μM^2 % or nMμM %"
same,"Synergy Volume, Result 2",[5],"37.2 nM^2 %, μM^2 % or nMμM %"
same,"Synergy Volume, Result 3",[5],"30.3 nM^2 %, μM^2 % or nMμM %"
